Assay results reported in patent publication US20100204263A1, “METHOD OF TREATING MULTIDRUG RESISTANT CANCERS” (priority 2007, published 2010).
Read-outs that look alike come from different tables or passages of the source.

Assays:
[1] = test system: HL60/VCR (HL60/MDR), a cell line selected for resistance to vincristine; test: WST-1 cell proliferation assay, HL60/VCR
Description: (§1) The HL60NCR resistant cell line has been characterized with over-expression of the multidrug resistant protein (MDR; p-glycoprotein). The over-expression ratio (level of MDR in resistant cell line over level of MDR in the parental cell line) is 8 fold with a 10 fold increase in pgp function. Pgp surface expression was measured by flow cytometry with the MRK16 antibody and Pgp function with the generic substrate, Rh123.
(§2) WST-1 is a water-soluble tetrazolium salt that can be used for cell proliferation or cell viability assays. The rate of WST-1 cleavage by mitochondrial dehydrogenases correlates with the number of viable cells in the culture. WST-1 is added directly to the cells ( 1/10th of the culture volume) and absorbance at 450 nm can be measured using an ELISA plate reader following a short incubation at 37° C.

Pgp, MRP-1 or BCRP [2] = test: Resistance Ratios in three pairs of parental and resistant cell lines; type: cell-based, human; settings: IC50 resistant / IC50 parental; HL60-HL60VCR, HL60-HL60ADR, 8226-8226/MR20
Description: The Resistance Ratios were calculated as IC50 of the resistant cell line/IC50 of the parental cell line.

[3] = test system: IGROV1 (human ovarian) cell line; test: SRB cell proliferation assay, IGROV1; type: cell-based
Description: (§3) The T8 resistant cell line has been characterized with over-expression of the multidrug resistant protein BCRP (breast cancer resistance protein). Topotecan, which is a known substrate for BCRP, was used as a control.
(§4) Sulforhodamine-B (SRB) assay is performed to assess cell survival. SRB is a water-soluble dye that binds to the basic amino acids of the cellular proteins. Thus, colorimetric measurement of the bound dye provides an estimate of the total protein mass that is related to the cell number. The color can then be quantified using a simple colorimetric assay. The results can be read on a multiwell scanning spectrophotometer (ELISA reader).

P-gp [4] = test: in vitro; settings: human, MDCK-MDR1, efflux/influx ratio, Drug alone
Description: (§5) MDR1-MDCK are Madin Darby Canine Kidney cells transfected with the human multi-drug resistance gene. Confluent monolayers made from these cells can be used to access a test compound's potential role as a P-gp substrate. The assay set up is similar to the CaCo-2 assay.
(§6) The samples were analyzed using LC/MS detection.

[5] = test system: pretreatment secondary AML patient cells; test: Amonafide and daunorubicin efflux in cryopreserved cells of patients treated with amonafide+cytarabine; type: cell-based, human; settings: cells from 15 patients treated with amonafide+cytarabine
Description: Cryopreserved cells were tested for viability and samples with viabilities less than 40% were considered inevaluable and discarded.
To measure drug uptake, the substrates were incubated with cells in medium containing each drug alone, or in combination with the modulator at the desired final concentrations. Cells were then washed and resuspended in PBS, and placed on ice. Drug-associated fluorescence was measured by flow cytometry using a FacScan flow cytometer (Becton Dickinson Immunocytometry Systems, San Jose, Calif.) equipped in standard fashion with an Argon laser for 488 nm excitation and a 585/42 band-pass filter (FL2) or a 670 long-pass (FL3) filter for emission collection. Data were analyzed with WinList software (Verity Software House, Topsham, Me.).

P-gp [6] = test: in vitro; settings: human
Description: (§7) Caco-2 cell permeability studies were performed using Caco-2 cell monolayers grown on microporous membranes in multiwell insert systems. […] The samples were analyzed using LC/MS detection. […] This is the slope of the basolateral concentration versus time curve divided by the concentration of compound in the apical dosing chamber and the total area of the Caco-2 cell monolayer.

Pgp [7] = biological target: T1, Pgp (Homo sapiens, UniProt P08183); settings: digoxin + test compound
T1 sequence (P08183 whole entry): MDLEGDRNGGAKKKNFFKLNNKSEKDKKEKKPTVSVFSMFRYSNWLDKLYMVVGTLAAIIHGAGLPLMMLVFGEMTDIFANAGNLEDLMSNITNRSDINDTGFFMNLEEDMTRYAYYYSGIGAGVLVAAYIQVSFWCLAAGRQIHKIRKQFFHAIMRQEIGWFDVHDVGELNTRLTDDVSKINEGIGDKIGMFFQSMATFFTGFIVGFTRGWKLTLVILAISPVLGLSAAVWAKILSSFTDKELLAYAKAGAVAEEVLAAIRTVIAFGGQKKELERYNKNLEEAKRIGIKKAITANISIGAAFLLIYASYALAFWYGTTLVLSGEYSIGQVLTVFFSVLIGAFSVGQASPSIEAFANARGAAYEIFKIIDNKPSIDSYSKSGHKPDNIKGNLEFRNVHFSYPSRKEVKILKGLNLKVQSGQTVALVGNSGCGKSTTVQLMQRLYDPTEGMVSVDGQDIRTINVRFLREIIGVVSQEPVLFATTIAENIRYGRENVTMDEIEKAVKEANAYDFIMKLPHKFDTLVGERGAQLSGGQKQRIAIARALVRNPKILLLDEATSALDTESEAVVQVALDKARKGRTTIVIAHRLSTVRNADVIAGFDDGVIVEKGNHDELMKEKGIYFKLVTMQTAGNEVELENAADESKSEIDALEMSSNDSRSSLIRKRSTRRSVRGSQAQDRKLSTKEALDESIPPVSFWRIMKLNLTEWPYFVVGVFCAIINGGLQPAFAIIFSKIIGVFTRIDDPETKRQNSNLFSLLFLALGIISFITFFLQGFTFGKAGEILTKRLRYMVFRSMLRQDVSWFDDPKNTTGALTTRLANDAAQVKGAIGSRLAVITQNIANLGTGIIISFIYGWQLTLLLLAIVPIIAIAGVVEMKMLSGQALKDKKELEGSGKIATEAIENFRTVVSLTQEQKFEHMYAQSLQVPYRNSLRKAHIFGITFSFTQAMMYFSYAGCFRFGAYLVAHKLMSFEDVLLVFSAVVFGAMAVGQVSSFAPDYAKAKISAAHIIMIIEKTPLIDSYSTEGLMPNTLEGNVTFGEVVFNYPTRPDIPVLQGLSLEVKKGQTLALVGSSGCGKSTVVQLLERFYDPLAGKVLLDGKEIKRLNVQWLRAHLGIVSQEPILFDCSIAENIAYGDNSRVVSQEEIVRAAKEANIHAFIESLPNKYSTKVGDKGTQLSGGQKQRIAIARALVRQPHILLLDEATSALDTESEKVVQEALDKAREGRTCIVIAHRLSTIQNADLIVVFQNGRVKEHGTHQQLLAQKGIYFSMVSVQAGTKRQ
Description: as §5
(§8) Both the Caco-2 and MDR1-MDCK cells were used for this model.

[8] = test system: 8226/MR20 cells (BCRP positive); test: Drug accumulation assay, 8226/MR20; type: cell-based, human; settings: 8226/MR20 ± FTC
Description: Functional expression analyses of BCRP were performed on a BD FACSCalibur flow cytometer (Franklin Lakes, N.J.). […] Data analysis was performed using the Dako Cytomation Summit software, version 4.0 (Fort Collins, Colo.).

[9] = test system: HL60 cells (Pgp negative); test: Drug accumulation assay, HL60; type: cell-based, human; settings: HL60, increasing concentrations of amonafide
Description: (§9) Functional expression analyses of Pgp were performed on a BD FACSCalibur flow cytometer (Franklin Lakes, N.J.). […] Data analysis was performed using the Dako Cytomation Summit software, version 4.0 (Fort Collins, Colo.).

Caco-2 cell monolayers [10] = settings: human, Caco-2, 120 min, 5 μM
Description: as §7

[11] = test system: HL60/ADR cells (MRP-1 positive); test: Drug accumulation assay, HL60/ADR; type: cell-based, human
Description: Following uptake, the cells were washed with PBS and resuspended in fresh medium. An aliquot of cells from each sample was placed on ice for quantitation of baseline drug uptake. The remaining cells were incubated further and then resuspended in chilled fresh medium, and placed on ice for immediate flow cytometric analysis.
Functional expression analyses of MRP-1 were performed on a BD FACSCalibur flow cytometer (Franklin Lakes, N.J.). Cellular amonafide content was measured on the Cytopeia Influx flow cytometer (Seattle, Wash.). Data analysis was performed using the Dako Cytomation Summit software, version 4.0 (Fort Collins, Colo.).

Caco-2 cell monolayers [12] = test: Caco-2 cell monolayer permeability
Description: as §7

[13] = test system: 8226/MR20, a cell line selected for resistance to mitoxantrone (BCRP); test: WST-1 cell proliferation assay, 8226/MR20
Description: The 8226/MR20 resistant cell line has been characterized with over-expression of the multidrug resistant protein (BCRP).
BCRP surface expression was measured by flow cytometry with the BXP21 antibody.
as §2

[14] = test system: HL60/ADR, a cell line selected for resistance to adriamycin (MRP-1); test: WST-1 cell proliferation assay, HL60/ADR
Description: The HL60/ADR resistant cell line has been characterized with over-expression of the multidrug resistant protein (MRP-1).
as §2

Pgp, MRP-1 or BCRP [15] = test: Resistance Modifying Factors in three pairs of parental and resistant cell lines; type: cell-based, human; settings: IC50 resistant without modulator / with modulator
Description: The Resistance Modifying Factors were calculated as IC50 of the resistant cell line in the absence of modulator/IC50 of the resistant cell line in the presence of modulator.

Pgp [16] = biological target: T1, Pgp
Description: as §8

[17] = test system: K562 (human leukemia) cell lines and a K562 cell line selected for resistance to daunorubicin; test: MTS cell proliferation assay, K562 and K562 resistant cell lines; type: cell-based
Description: MTS assay is an assay in which the bioreduction of the MTS reagent (3-(4,5-dimethylthiazol-2-yl)-5-(3-carboxymethoxyphenyl)-2-(4-sulfophenyl)-2H-tetrazolium)) by cells is being measured to assess metabolic activity of cells is based on the ability of a mitochondrial dehydrogenase enzyme from viable cells to cleave the tetrazolium rings of the MTS and form formazan crystals which are largely impermeable to cell membranes, thus resulting in its accumulation within healthy cells. Solubilization of the cells by the addition of a detergent results in the liberation of the crystals which are solubilized. The number of surviving cells is directly proportional to the level of the formazan product created. The color can then be quantified using a simple colorimetric assay. The results can be read on a multiwell scanning spectrophotometer (ELISA reader).

[18] = test system: HL60/VCR cells (Pgp positive); test: Drug accumulation assay, HL60/VCR; type: cell-based, human
Description: as §9

[19] = test system: K562-K562/DOX cells (Pgp negative and Pgp positive); test: Drug accumulation assay, amonafide retention in K562 and K562/DOX; type: cell-based, human
Description: Functional expression analyses of Pgp were performed on a BD FACSCalibur flow cytometer (Franklin Lakes, N.J.). […] Data analysis was performed using the Dako Cytomation Summit software, version 4.0 (Fort Collins, Colo.). […] Differential Pgp staining of anti-Pgp treated cells was compared to that of control cells counted with the same number of gated events. All test samples were compared to their respective controls using Kolmogorov-Smirnov (KS) non-parametric statistics and expressed as D-values ranging from 0 to 1. These analyses were performed using the NCSS 2007 software (Kaysville, Utah). This approach addresses the maximum difference between two empirical distribution functions.

[20] = test system: MCF7 (human breast cancer) cell lines and a MCF7 cell line selected for resistance to doxorubicin; settings: clonogenic
Description: The MCF7 resistant cell line has been characterized with over-expression of the multidrug resistant protein (MDR; p-glycoprotein).
In the clonogenic assay cells are treated in vitro and then suspended in a soft agar/cell media mixture. The cells are allowed to grow in definable and distinct clumps of cells, referred to as clones, based upon the survival of the cells originally treated. After a defined time span the number of clones is then counted by microscope.

[21] = test system: HL60 (human promyelocytic leukemia) cells; test: WST-1 cell proliferation assay, HL60; type: cell-based; settings: HL-60, wild-type HL60, WST-1, read-out: IC50 HL60
Description: as §1, §2

[22] = test system: IGROV1-T8, a cell line selected for resistance to topotecan (increased BCRP expression); test: cells; settings: Homo sapiens
Description: as §3, §4

[23] = test system: P388 (murine leukemia) cell lines and a P388 cell line selected for resistance to doxorubicin; settings: MTT
Description: The P388 resistant cell line has been characterized with over-expression of the multidrug resistant protein (MDR; p-glycoprotein).
MTT [3-(4,5-dimethylthiazol-2-yl)-2,5-diphenyltetrazolium bromide] assay, first described by Mosmann in 1983, is based on the ability of a mitochondrial dehydrogenase enzyme from viable cells to cleave the tetrazolium rings of the pale yellow MTT and form a dark blue formazan crystals which is largely impermeable to cell membranes, thus resulting in its accumulation within healthy cells. Solubilization of the cells by the addition of a detergent results in the liberation of the crystals which are solubilized. The number of surviving cells is directly proportional to the level of the formazan product created. The color can then be quantified using a simple colorimetric assay. The results can be read on a multiwell scanning spectrophotometer (ELISA reader).

Description for MDR1-MDCK cells (P-gp): as §5, §6

## CN(C)CCN1C(=O)c2cccc3cc(N)cc(c23)C1=O [Amonafide, amonafide]
[1]; HL60/MDR vs HL60
  Fold Change in IC50: 0.29
[1]; HL60/VCR ± PSC833
  cytotoxicity in presence of Pgp inhibitor PSC833: unaffected
[1]; HL60 vs HL60/VCR
  potency in both cell lines: equipotent in both cell lines
[1]; Homo sapiens, HL60/VCR, read-out: IC50 HL60/MDR
  IC50: 2.04 µM
Pgp, MRP-1 or BCRP [2]
  substrate status from Resistance Ratios: not a substrate for Pgp, MRP-1 or BCRP
[3]; IGROV-1, IGROV1, average, read-out: IC50 (average)
  IC50: 2.93 µM
[3]; IGROV-1, IGROV1, experiment (1), read-out: IC50
  IC50: 2.54 µM
[3]; IGROV-1, IGROV1, experiment (2), read-out: IC50
  IC50: 3.73 µM
[3]; IGROV-1, IGROV1, experiment (3), read-out: IC50
  IC50: 2.53 µM
P-gp [4]
  efflux ratio at 120 min, 5 μM: 2.2 ± 0.8
[5]
  drug efflux in relation to clinical response (CR vs non-CR): no significant difference
P-gp [6]; Caco-2
  Papp B→A at 120 min, 5 μM: 26.8 ×10⁻⁶ cm/s
P-gp [6]; Caco-2, efflux/influx ratio, Caco-2, +CSA
  efflux ratio at 120 min, 5 μM: 1.1 ± 0.4
P-gp [6]; Caco-2, efflux/influx ratio, Caco-2, Drug alone
  efflux ratio at 120 min, 5 μM: 0.9 ± 0.2
P-gp [6]; Caco-2, ratio of Papp(B-A)/Papp(A-B)
  efflux ratio at 120 min, 5 μM: 1
Pgp [7]
  % Inhib. of control, digoxin efflux, MDR1-MDCK: 10%
[8]
  Amonafide uptake and efflux in presence of BCRP inhibitor FTC: did not significantly change
[9]
  amonafide accumulation: increases with increasing amonafide dose
MDR1-MDCK cells (P-gp); +CSA
  efflux/influx ratio, MDR1-MDCK, +CSA: 1.2 ± 0.8
MDR1-MDCK cells (P-gp); Drug alone
  efflux/influx ratio, MDR1-MDCK, Drug alone: 2.2
MDR1-MDCK cells (P-gp); MDR1-MDCK
  effect of addition of CSA on efflux: did not have any effect
MDR1-MDCK cells (P-gp); conclusion from Caco-2 and MDR1-MDCK studies
  Pgp substrate / inhibitor status (conclusion): neither a substrate nor an inhibitor of Pgp
Caco-2 cell monolayers [10]
  efflux/influx ratio, Caco-2, Drug alone: 0.9
[11]
  Amonafide uptake and efflux in presence of MRP-1 inhibitor MK571: did not significantly change
Caco-2 cell monolayers [12]; Caco-2
  effect of addition of CSA on efflux: did not have any effect
Caco-2 cell monolayers [12]; high efflux if ratio ≧3.0 and Papp(B-A) ≧1.0×10^−6 cm/s
  efflux classification: not having significant efflux
[13]; 8226/MR20 ± Fumitremorgin C
  cytotoxicity in presence of BCRP inhibitor Fumitremorgin C: unaffected
[13]; 8226 vs 8226/MR20
  potency in both cell lines: equipotent in both cell lines
[14]; HL60/ADR ± MK571
  cytotoxicity in presence of MRP1 inhibitor MK571: unaffected
[14]; HL60 vs HL60/ADR
  potency in both cell lines: equipotent in both cell lines
Pgp, MRP-1 or BCRP [15]
  substrate status from Resistance Modifying Factors: not a substrate for Pgp, MRP-1 or BCRP
Pgp [16]; Caco-2
  effect on digoxin efflux: no effect
Pgp [16]; digoxin + test compound
  % Inhib. of control, digoxin efflux, Caco-2: 0%
[17]
  potency in resistant vs non-resistant cell line: equipotent in both cell lines
[18]
  Amonafide uptake and efflux in presence of Pgp inhibitor PSC833: did not significantly change
[19]; K562 vs K562/DOX
  Amonafide uptake and efflux, comparison of the two cell lines: not significantly different between the two cell lines
[19]; each cell line ± PKC412
  amonafide content in presence of Pgp inhibitor PKC412: did not significantly change
[20]
  potency in resistant vs non-resistant cell line: equipotent in both cell lines
[21]
  IC50: 6.98 µM
[22]; T8, experiment (1)
  IC50: 5.18 µM
[22]; T8, experiment (2)
  IC50: 4.87 µM
[22]; T8, experiment (3)
  IC50: 5.83 µM
[22]; read-out: IC50 (average), T8, average
  IC50: 5.29 µM
[23]
  potency in resistant vs non-resistant cell line: equipotent in both cell lines
